From patent publication US20220220135A1 (BAR-ILAN UNIVERSITY, priority 2019, published 2022) come the findings set out here.

Molecules are shown by their SMILES.

Data set [1] concerns the target T1, NPP1 (Homo sapiens, UniProt P22413).
T1 sequence (P22413 1-925): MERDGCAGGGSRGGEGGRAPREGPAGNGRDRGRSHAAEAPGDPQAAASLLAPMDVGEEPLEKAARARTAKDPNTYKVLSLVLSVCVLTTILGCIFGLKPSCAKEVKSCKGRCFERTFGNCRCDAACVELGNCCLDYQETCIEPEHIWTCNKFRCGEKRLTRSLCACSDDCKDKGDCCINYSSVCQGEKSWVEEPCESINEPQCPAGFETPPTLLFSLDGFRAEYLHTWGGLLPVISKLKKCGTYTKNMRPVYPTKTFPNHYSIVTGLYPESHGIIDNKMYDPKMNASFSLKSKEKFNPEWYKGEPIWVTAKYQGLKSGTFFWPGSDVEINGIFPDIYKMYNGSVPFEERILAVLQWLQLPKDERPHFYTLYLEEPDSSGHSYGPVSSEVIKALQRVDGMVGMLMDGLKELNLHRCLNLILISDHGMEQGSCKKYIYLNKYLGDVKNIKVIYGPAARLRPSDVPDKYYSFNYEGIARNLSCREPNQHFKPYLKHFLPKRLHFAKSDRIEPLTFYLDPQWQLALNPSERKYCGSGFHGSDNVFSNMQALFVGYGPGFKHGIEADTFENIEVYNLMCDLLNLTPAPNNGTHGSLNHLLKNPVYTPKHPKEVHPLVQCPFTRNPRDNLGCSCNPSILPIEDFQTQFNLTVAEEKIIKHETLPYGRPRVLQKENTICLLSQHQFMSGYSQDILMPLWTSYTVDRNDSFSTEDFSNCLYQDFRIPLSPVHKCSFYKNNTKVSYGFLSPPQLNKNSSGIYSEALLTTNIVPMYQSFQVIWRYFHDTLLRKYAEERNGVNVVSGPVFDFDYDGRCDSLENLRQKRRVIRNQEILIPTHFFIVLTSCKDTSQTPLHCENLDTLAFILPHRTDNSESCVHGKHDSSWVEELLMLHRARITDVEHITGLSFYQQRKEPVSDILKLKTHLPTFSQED
In words: Inhibition of human NPP1, ATP as substrate (analogues 9-12). The data set is classed as biochemical. The following applies: ATP (100 μM) as the substrate. The protocol: FIG. 2: Inhibition of NTPDases and NPPs by analogues 9-12 using as substrates ATP (100 μM) for NTPDase1,2,3,8 and pNP-TMP (100 μM) for NPP1,3 (Panel A); and ATP (100 μM) was used as the substrate for NPP1 (Panel B);
At least 2 independent experiments were performed. In panel A, the activity with 100 μM ATP was set as 100%, which was 287±31, 395±67, 278±22, 119±26 nmol of Pi·min−1·mg of protein−1 for human NTPDase1, -2, -3 and -8, respectively, and the activity with 100 μM pNP-TMP was set as 100% which was 67±5, 21±1 nmol of p-nitrophenol·min−1·mg of protein−1 for human NPP1 and NPP3, respectively. In panel B, the activity with 100 μM ATP was set as 100% which was 34±7 nmol of PPi·min−1·mg of protein−1 for NPP1.

For the next data set, the target named is T2, NTPDase3 (Homo sapiens, UniProt O75355).
T2 sequence (O75355 1-529): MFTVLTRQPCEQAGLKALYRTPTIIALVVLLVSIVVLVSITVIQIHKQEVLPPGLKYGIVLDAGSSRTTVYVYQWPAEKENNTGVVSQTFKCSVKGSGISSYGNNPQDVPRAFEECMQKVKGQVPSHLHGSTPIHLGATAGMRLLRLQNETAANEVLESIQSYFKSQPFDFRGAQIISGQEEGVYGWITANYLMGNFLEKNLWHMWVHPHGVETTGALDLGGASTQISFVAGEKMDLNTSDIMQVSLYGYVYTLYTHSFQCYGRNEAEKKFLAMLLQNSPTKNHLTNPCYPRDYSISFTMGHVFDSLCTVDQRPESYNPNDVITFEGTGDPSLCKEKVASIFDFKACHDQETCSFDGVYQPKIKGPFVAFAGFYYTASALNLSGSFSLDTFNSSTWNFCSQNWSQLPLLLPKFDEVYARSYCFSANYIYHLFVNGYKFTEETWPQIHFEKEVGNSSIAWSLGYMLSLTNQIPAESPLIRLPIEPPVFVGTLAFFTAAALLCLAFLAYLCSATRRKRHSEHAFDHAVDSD
The data set can be described thus: Stability to hydrolysis by human NTPDase3. The following applies: analogue 100 μM; activity with 100 μM ATP = 100%. The data set is classed as in vitro ADME. As for the experimental part: Uridine 5′-Pα,α-phosphorodithioate analogues, 9-12, were tested for their stability to degradation by NPP1 and NTPDases. These enzymes are involved in the metabolism of extracellular nucleotides. Analogues 9-12 were not hydrolyzed by hNPP1 (Table 2). […] Analogue 10 was hydrolyzed by hNTPDase1, -2 and -3 at 30-39% the rate of ATP and was slightly hydrolyzed by human NTPDase8 at 16% the rate of ATP.
Analogues 9-12 were incubated in the presence of the indicated ectonucleotidase at a concentration of 100 μM. The activity with 100 μM ATP was set as 100%, which was 329±108, 302±34, 263±51, 195±76 nmol of Pi·min−1·mg of protein−1 for NTPDase1, -2, -3 and -8, respectively, and 34±7 nmol for NPP1. Data presented are the mean±SEM of results from two experiments.

Data set [2] addresses T1, NPP1. The data set can be described thus: Inhibition of human NPP1, 100 μM ATP as substrate (FIG. 9, Table 6). The data set is classed as biochemical. The following applies: ATP (100 μM) as a substrate. As for the experimental part: Each experiment was performed in triplicates;
The target of the next data set is T3, human P2Y2R (Homo sapiens, UniProt P41231).
T3 construct: expressed in transfected cells; host or cells: 1321N1 astrocytoma cells
T3 sequence (P41231 whole entry): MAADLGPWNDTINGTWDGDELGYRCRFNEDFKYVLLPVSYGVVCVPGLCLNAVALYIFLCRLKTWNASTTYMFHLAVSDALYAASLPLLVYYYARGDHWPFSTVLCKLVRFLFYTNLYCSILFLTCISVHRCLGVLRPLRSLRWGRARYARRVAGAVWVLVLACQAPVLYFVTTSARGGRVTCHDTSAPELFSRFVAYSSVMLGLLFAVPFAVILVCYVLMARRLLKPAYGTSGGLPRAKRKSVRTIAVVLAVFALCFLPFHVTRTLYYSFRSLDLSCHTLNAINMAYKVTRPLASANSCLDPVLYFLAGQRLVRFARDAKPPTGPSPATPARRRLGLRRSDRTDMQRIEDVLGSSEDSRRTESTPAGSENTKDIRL
In words: Calcium mobilization in 1321N1 astrocytoma cells expressing human P2Y2R. The format is cell-based. As for the experimental part: Given the structural resemblance of 106-109 to the natural ligands of P2Y receptors, adenine and uracil nucleotides as natural substrates, were assessed for agonist potency on the human P2Y1, P2Y2, P2Y4, and P2Y6 receptor. To evaluate NPP1 selectivity of analogs 106-109, they were tested for their ability to activate of the uridine-nucleotide sensitive human recombinant P2Y1,2,4,6-receptors. The agonist potencies of this series of nucleotide analogues on the Gq protein-coupled human P2Y1R, P2Y2R, P2Y4R, and P2Y6R was determined by assessing its ability to induce calcium mobilization in stably transfected 1321N1 astrocytoma cells (Table 8). The nucleotide analogues were found in calcium mobilization assays to activate the P2Y2R with mid-micromolar potency.
For orientation: A change in cytosolic calcium serves as a functional read-out for many receptors and channels.

Data set [3] addresses T1, NPP1. The data set can be described thus: Inhibition of human NPP1, 100 μM p-Nph-5′-TMP as substrate (Tables 5, 6).

What is called inhibition is the drop in the measured response relative to a control, in per cent. What is called Ki is the equilibrium dissociation constant of an inhibitor or competing ligand from its target.

For the compound `O=c1ccn([C@@H]2O[C@H](COP(=S)(S)OP(=O)(O)OP(=O)(O)OP(=S)(S)OC[C@H]3O[C@@H](n4ccc(=O)[nH]c4=O)[C@H](O)[C@@H]3O)[C@@H](O)[C@H]2O)c(=O)[nH]1` (stereo partly shown) [Analogue 12], the “inhibition of human NPP1 activity” value at NPP1 [1] is given as “effectively blocked”.
As for `O=c1ccn([C@@H]2O[C@H](COP(=S)(S)OP(=O)(O)OP(=O)(O)O)[C@@H](O)[C@H]2O)c(=O)[nH]1` (stereo partly shown) [Analogue 10], the “Relative activity (%) ± SEM of ATP hydrolysis, NTPDase3” value on NTPDase3 turned out to be 39.7 ± 1.9%.
For `Nc1ncnc2c1ncn2COCCOP(=S)(S)OP(=O)(O)O` (stereo not shown) [compound 106], the inhibition at 10 µM at NPP1 [2] (10 μM, n = 3, read-out: % inhibition ± SEM at 10 μM, human NPP1) stood at 68 ± 1%; at NPP1 [3] (read-out: % inhibition ± SEM at 10 μM, human NPP1) it was 67 ± 1%. Also, the Ki on NPP1 [2] (read-out: Ki (μM ± SD), human NPP1 (converted)) was 0.305 µM; on NPP1 [3], 1810 nM. For the same compound, the “% activation at 10 μM, P2Y2” value on human P2Y2R was determined as 32 ± 18%.
